What was measured:
[1] = test system: ECV304 human endothelial cells; conditions: 10 μM α-T, 10 μM γ-T or 5 μM of each; 19 hours preincubation; 5 mM SIN-1; 24 hours
Protocol: Cultured ECV304 human endothelial cells were exposed to SIN-1 in the presence of 10 μM α-T, 10 μM γ-T or 5 μM of each (FIG. 5). Tocopherols were incubated with the cells for 19 hours prior to addition of SIN-1. Viability was assayed 24 hours later using a standard tetrazolium (MTT) reduction assay.

[2] = test system: C3H/10T1/2 fibroblasts; conditions: methylcholanthrene-treated C3H/10T1/2 fibroblasts; cited from earlier work
[3] = 100 mg/kg/day, 10 days, cited from earlier work
[4] = test system: αKGDH; assay: heart αKGDH activity after tocopherol supplementation, with or without LPS challenge; type: in vivo, rat
Protocol: Rats were injected with 15 mg of tocopherol over the first 1 month of life; specific groups were then challenged with a septic dose of LPS and heart αKGDH activity was assayed 24 H later. *p<0.1 relative to vehicle; †p<0.05 relative to vehicle. N=5/group.
Rat pups were injected intraperitoneally (I.P.) with αT or γT in an olive oil vehicle every other day for 30 days beginning 2 days after birth; control animals received vehicle only. […] A total of 15 mg tocopherol was delivered to each animal over the 30 day period; animal weight at the end of the period was approximately 90 g for all three groups. One half of each animal group was injected with a septic dose of LPS (2.5 mg/kg, I.P). After 24 H, animals were killed and organs collected. αKGDH was assayed in heart tissue and tocopherols were measured by HPLC-ECD/PDA.

[5] = tocopherol-depleted rats fed two weeks after iron-dextran; cited from earlier work
[6] = liposomes exposed to ONOO−; cited from earlier work
[7] = plasma concentrations of tocopherols and 5-NO2-γ-tocopherol in volunteers; type: in vivo, human; conditions: mean ± SEM
Excerpt: Smoking is recognized as a major contributing factor to heart disease and γ-T reportedly decreases more than α-T in smokers. Hypertension is also a strong risk factor for heart disease. […] Seven subjects indicated a chronic hypertensive condition. As outlined in Table I, γ-tocopherol tended to decrease in hypertensive subjects while nitration products tended to increase in both smokers and hypertensive subjects. This was the trend regardless of whether the tocopherol concentrations were normalized to plasma triglycerides (Table I).

[8] = variously reported; cited from earlier work
[9] = test system: αKGDH; assay: αKGDH protection against SIN-1 nitrative stress in isolated mitochondria in vitro; type: biochemical, rat
Protocol: FIG. 3 is a graph showing rat brain mitochondria exposed to 0.4 mM SIN-1 for 1 H after addition of tocopherol. (•)α-tocopherol; (▪)γ-tocopherol. The scale bars labeled [α]norm and [Y]norm indicate the normal endogenous quantities of α-tocopherol and γ-tocopherol, respectively, in human brain.
αKGDH is a rate-limiting enzyme of mitochondrial energy production which is diminished in conditions of vascular ischemia (53-58); augmentation of the enzyme with α-ketoglutarate has been found beneficial and α-ketoglutarate is now included as a component in cardioplegia fluid to improve recovery after heart surgery (59). We undertook to determine whether γT protects αKGDH against nitrative stress in vitro. Mitochondria were isolated from adult rat brain then sonicated briefly in the presence of either αT or γT, or an ethanol vehicle. Mitochondria were then exposed to SIN-1, which generates NO and superoxide simultaneously at a known rate (7). Combination of NO and superoxide yields ONOO^−. in situ (discussed above).

[10] = test system: platelets; assay: platelet aggregation in vitro (PRP, aggregometer); type: cell-based, human; conditions: for Platelet Aggregation (% maximum): 500 μM α-tocopherol or 50 μM γ-tocopherol, 1 H preincubation
Protocol: […] inhibits platelet aggregation in vitro and in vivo, apparently through antagonism of protein kinase C (PKC) (60-63). Concentrations of αT necessary to inhibit aggregation in vitro are on the order of 500 μM (60-63), or approximately 10-fold higher than achieved in vivo. The concentration difference between in vitro and in vivo efficacy has been rationalized on the basis of incomplete tocopherol incorporation into membranes during in vitro incubation (63). Nonetheless, subjects supplemented with oral αT have diminished platelet aggregation (63). We therefore sought to investigate the ability of γ-tocopherol to inhibit platelet aggregation. PRP was obtained from two volunteers. Platelets were stimulated to aggregate with ADP, thrombin receptor activating peptide (TRAP) or the PKC agonist phorbol myristyl acetate (PMA) and aggregation was measured using a 4-channel clinical aggregometer. Specific platelet samples were preincubated with vehicle, αT, γT or 5-NO2-γ-tocopherol for 1 H prior to stimulation. Tocopherol concentrations were set at 10-fold excess to average PRP levels based on the precedent of previous in vitro aggregation experiments that used αT as an inhibitor (60-63).

[11] = rat, in vivo, 30 days
Protocol: Rat pups were injected intraperitoneally (I.P.) with αT or γT in an olive oil vehicle every other day for 30 days beginning 2 days after birth; control animals received vehicle only. Olive oil was chosen as a vehicle because of the low tocopherol content in this particular vegetable oil. […] One half of each animal group was injected with a septic dose of LPS (2.5 mg/kg, I.P). After 24 H, animals were killed and organs collected. αKGDH was assayed in heart tissue and tocopherols were measured by HPLC-ECD/PDA.

[12] = cited from earlier work
[13] = human plasma γT relative to αT; type: in vivo
Excerpt: Chemistry of tocopherol reaction with oxidizing agents. γ-Tocopherol is a natural product (a desmethyl tocopherol) of plant origin, present in many vegetable oils, especially soybean oil (1-2). γ-Tocopherol is normally taken into the body through consumption of foodstuffs. Human plasma γT concentration is variously reported as 5-30% of αT (3). The γTαT ratio varies markedly among individuals; plasma γT/αT proportionalities may be as low as 0.2% and as high as 30% (inventors' observations). Both αT and γT are absorbed equally well by the gut, but γT is packaged into lipoproteins less effectively than αT (4). For this reason, αT supplementation decreases systemic γT concentration (3-4).
γ-Tocopherol in human biology and cardiovascular disease. Relative to αT, a dearth of epidemiological data exists for γT. Human plasma γT concentration is variously reported as between 5-30% that of αT (41). In platelet-poor plasma, we find that 7% is very close to the correct value in young healthy subjects. The γT/αT ratio varies markedly among individuals; we have observed plasma γT/αT proportionalities as low as 0.2% and as high as 30%. γT is now a major tocopherol in the US diet, due to the high intake of soybean and vegetable oils that are abundant sources of γT (40). Both αT and γT are absorbed equally well by the gut, but γT is packaged into lipoproteins less effectively than αT (39). For this reason, αT supplementation decreases systemic γT concentration (41-42). δ-Tocopherol, β-tocopherol and tocol (other demethylated tocopherol homologs) exist in human plasma at approximately 1:10 ratios relative to γT (41). Detailed demographic data regarding plasma and tissue levels of desmethylated tocopherols and their oxidation products have never been published. While extensive data has been collected on α-tocopherol as a possibly beneficial molecule in cardiovascular disease, very little data has been collected on γT.

[14] = rat brain mitochondria, 400 μM SIN-1, one hour

Question: With `Cc1c(O)cc2c(c1C)O[C@](C)(CCC[C@H](C)CCC[C@H](C)CCCC(C)C)CC2` [γ-tocopherol] as the molecule, how does the “effect on SIN-1 toxicity (MTT viability)” value [1] read?
Answer: Its value is “promoted viability somewhat”.

Question: And the “effectiveness at inhibiting neoplastic transformation relative to αT” value [2]?
Answer: The value was 4 fold.

Question: And the “increase of plasma level above baseline” value ([3]; own supplementation)?
Answer: Its value is 6 fold.

Question: What about the “plasma γT concentration as % of the αT concentration” value ([3]; γT supplemented rats) of the same molecule?
Answer: The value was at most 10%.

Question: What about the “heart αKGDH activity after LPS challenge, ranking among groups” value ([4]; LPS 2.5 mg/kg I.P., 24 H) of the same molecule?
Answer: Its value is “highest heart αKGDH activity”.

Question: And the “increase of mean heart αKGDH activity” value ([4]; animals not subjected to LPS stress, 15 mg tocopherol I.P. over 30 days)?
Answer: Its value is 40%.

Question: And the “effectiveness at inhibiting systemic lipid oxidation relative to αT” value [5]?
Answer: Its value is “approximately 35%”.

Question: And the “effectiveness at inhibiting lipid hydroperoxide formation relative to αT” value [6]?
Answer: Its value is “twice as effective”.

Question: What about the plasma concentration ([7]; hypertensives, N = 7) of the same molecule?
Answer: Its plasma concentration is 0.463 ± 0.165 μg/mL plasma.

Question: And the “plasma concentration normalized to triglyceride” value (from here on “plasma concentration normalized”) ([7]; hypertensives, N = 7)?
Answer: Its value is 0.606 ± 0.153 μg/mg triglyceride.

Question: What about the plasma concentration ([7]; population, N = 54) of the same molecule?
Answer: The plasma concentration was 0.713 ± 0.067 μg/mL plasma.

Question: What about the “plasma concentration normalized” value ([7]; population, N = 54) of the same molecule?
Answer: Its value is 0.813 ± 0.088 μg/mg triglyceride.

Question: What about the plasma concentration ([7]; smokers, N = 7) of the same molecule?
Answer: Its plasma concentration is 0.680 ± 0.153 μg/mL plasma.

Question: What about the “plasma concentration normalized” value ([7]; smokers, N = 7) of the same molecule?
Answer: Its value is 0.810 ± 0.213 μg/mg triglyceride.

Question: And the “human plasma γT concentration as % of αT” value [8]?
Answer: The value was 5-30%.

Question: And the “concentration offering as much αKGDH protection as 1-10 μM αT” value ([9]; 400 μM SIN-1, one hour)?
Answer: Its value is 50 to 100 nM.

Question: And the “αKGDH protection in side-by-side comparison” value ([9]; all concentrations tested)?
Answer: Its value is “more protective than αT”.

Question: What about the “αKGDH protection relative to corresponding concentration of αT” value ([9]; concentrations near 100 nM, 400 μM SIN-1) of the same molecule?
Answer: Its value is “approximately 5 times”.

Question: And the “maximal αKGDH protection relative to αT” value [9, 14]?
Answer: The value was “approximately 2.5 times”.

Question: What about the “tocopherol concentration of maximal αKGDH protection” value [9, 14] of the same molecule?
Answer: The value was 1 µM.

Question: What about the “Platelet Aggregation (% maximum)” value ([10]; ADP 20 μM, Subject 1) of the same molecule?
Answer: Its value is 117 % maximum.

Question: And the “Platelet Aggregation (% maximum)” value ([10]; ADP 20 μM, Subject 2)?
Answer: The value was 90 % maximum.

Question: What about the “Platelet Aggregation (% maximum)” value ([10]; PMA 200 nM, Subject 1) of the same molecule?
Answer: The value was 57 % maximum.

Question: And the “Platelet Aggregation (% maximum)” value ([10]; PMA 200 nM, Subject 2)?
Answer: The value was 29 % maximum.

Question: What about the “Platelet Aggregation (% maximum)” value ([10]; TRAP 20 μM, Subject 1) of the same molecule?
Answer: Its value is 73 % maximum.

Question: What about the “Platelet Aggregation (% maximum)” value ([10]; TRAP 20 μM, Subject 2) of the same molecule?
Answer: The value was 88 % maximum.

Question: And the “ability to inhibit PKC-linked platelet aggregation” value ([10]; TRAP or PMA as agonist)?
Answer: The value was “similarly efficacious to αT”.

Question: And the “heart tissue tocopherol concentration, controls” value [11]?
Answer: Its value is 1.8±0.4 ng/mg protein.

Question: What about the “delay/increase of time to occlusive thrombus” value ([12]; 100 mg/kg/day for 10 days, 29% FeCl3 patch) of the same molecule?
Answer: The value was 65%.

Question: What about the “inhibition of platelet aggregation kinetics, efficacy relative to αT supplementation” value ([12]; 100 mg/kg/day for 10 days) of the same molecule?
Answer: Its value is 2 fold.

Question: And the “potency relative to αT at inhibition of thrombogenic correlates, in reference to plasma tocopherol concentrations” value ([12]; rat, in vivo)?
Answer: Its value is 20-30 times.

Question: And the “superoxide dismutase activity in the aortas compared to αT treated group” value ([12]; rat, in vivo)?
Answer: Its value is “increased significantly”.

Question: What about the “highest observed plasma γT/αT proportionality” value ([13]; inventors' observations) of the same molecule?
Answer: Its value is 30%.

Question: What about the “lowest observed plasma γT/αT proportionality” value ([13]; inventors' observations) of the same molecule?
Answer: Its value is 0.2%.

Question: And the “plasma γT concentration as % of αT” value ([13]; platelet-poor plasma, young healthy subjects)?
Answer: Its value is about 7%.

Source: patent publication US6346544B2, “Desmethyl tocopherols for protecting cardiovascular tissue” (Oklahoma Medical Research Foundation, priority 2000, dated 2002)
